Measurements taken from patent publication US5955440A, “Macrolide LHRH antagonists” (Abbott Laboratories, priority 1998, dated 1999).

Tests used:
[1] = target: T1, rat pituitary cells (Rattus norvegicus, UniProt P30969); experiment: LH inhibition from rat pituitary cells, antagonist potency (pA2); assay type: cell-based; conditions: negative log of antagonist concentration shifting the leuprolide response curve to two-fold higher concentration, Table 2
T1 construct: endogenous in cells; host or cells: rat pituitary cells
T1 sequence (P30969 1-327): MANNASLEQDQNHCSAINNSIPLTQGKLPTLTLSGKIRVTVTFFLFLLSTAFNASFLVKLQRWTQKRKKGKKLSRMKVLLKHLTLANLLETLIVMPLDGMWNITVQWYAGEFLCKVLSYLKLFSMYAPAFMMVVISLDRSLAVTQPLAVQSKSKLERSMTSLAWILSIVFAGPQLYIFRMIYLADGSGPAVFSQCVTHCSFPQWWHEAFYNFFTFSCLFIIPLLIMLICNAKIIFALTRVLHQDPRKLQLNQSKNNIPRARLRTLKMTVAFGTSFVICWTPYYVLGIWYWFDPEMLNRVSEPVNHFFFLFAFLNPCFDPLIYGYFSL
Procedure: (§1) Representative compounds of the present invention were evaluated in in vitro tests for LHRH rat pituitary receptor binding (pKI) and for LH inhibition from rat pituitary cells for antagonist potency (pA2). The tests employed the methods detailed in F. Haviv, et al. J. Med. Chem., 32: 2340-2344 (1989). The receptor binding affinity (pKI) is the negative logarithm of the equilibrium dissociation constants.
The pA2 value is the negative logarithm of the concentration of antagonist which shifts the response curve produced by the agonist leuprolide to two-fold higher concentration. Leuprolide is the LHRH agonist having the structure pyro-Glu^1 -His^2 -Trp^3 -Ser^4 -Tyr^5 -D-Leu^6 -Leu^7 -Arg^8 -Pro^9 -NHEt and is disclosed and claimed in U.S. Pat. No. 4,005,063. Typically pA2 values of 7.0 or greater are indicative of good LHRH antagonist potency.

[2] = target: T2, LHRH rat pituitary receptor (Rattus norvegicus, UniProt P30969); experiment: LHRH rat pituitary receptor binding (pKI); conditions: negative logarithm of the equilibrium dissociation constants, Table 1, read-out: receptor binding affinity (pKI) (converted)
T2 construct: from tissue; host or cells: rat pituitary
T2 sequence (P30969 1-327): T1 sequence (P30969 1-327)
Procedure: as §1

SMILES | Kb [1] | Ki [2]
CCCN(C)[C@H]1C[C@@H](C)O[C@@H](O[C@@H]2[C@@H](C)[C@H](O[C@H]3C[C@@](C)(OC)[C@@H](O)[C@H](C)O3)[C@@H](C)C(=O)O[C@H](CC)[C@@]3(C)OC(=O)N(CCc4ccc(F)c(F)c4)[C@@H]3[C@@H](C)C(=O)[C@H](C)C[C@@]2(C)OC)[C@@H]1O [Example 32, 3'-N-Desmethyl-3'-N-n-propyl-11-deoxy-11-[carboxy-(3,4-difluorophenethylamino)]-6-O-methyl-erythromycin A 11,12-(cyclic carbamate)] | 26.3 nM | 0.0832 nM
CC[C@H]1OC(=O)[C@H](C)[C@@H](O[C@H]2C[C@@](C)(OC)[C@@H](O)[C@H](C)O2)[C@H](C)[C@@H](O[C@@H]2O[C@H](C)C[C@H](N(C)CC3CC3)[C@H]2O)[C@](C)(OC)C[C@@H](C)C(=O)[C@H](C)[C@H]2N(CCc3ccc(F)c(F)c3)C(=O)O[C@]12C [Example 33, 3'-N-Desmethyl-3'-N-cyclopropylmethyl-11-deoxy-11-[carboxy-(3,4-difluorophenethylamino)]-6-O-methyl-erythromycin A 11,12-(cyclic carbamate)] | 3.98 nM | 0.676 nM
